# Assay results taken from ChEMBL document CHEMBL1127892, “(6-oxo-3-pyridazinyl)-benzimidazoles as potent angiotensin II receptor antagonists” (Bioorg Med Chem Lett, 1994).
# Tests used:
# [1] = target: T1, Type-1 angiotensin II receptor (Oryctolagus cuniculus, UniProt P34976); experiment: Inhibitory activity against Angiotensin II receptor, type 1 induced contractions in isolated rabbit aortic rings; type: functional
# T1 sequence (P34976 whole entry): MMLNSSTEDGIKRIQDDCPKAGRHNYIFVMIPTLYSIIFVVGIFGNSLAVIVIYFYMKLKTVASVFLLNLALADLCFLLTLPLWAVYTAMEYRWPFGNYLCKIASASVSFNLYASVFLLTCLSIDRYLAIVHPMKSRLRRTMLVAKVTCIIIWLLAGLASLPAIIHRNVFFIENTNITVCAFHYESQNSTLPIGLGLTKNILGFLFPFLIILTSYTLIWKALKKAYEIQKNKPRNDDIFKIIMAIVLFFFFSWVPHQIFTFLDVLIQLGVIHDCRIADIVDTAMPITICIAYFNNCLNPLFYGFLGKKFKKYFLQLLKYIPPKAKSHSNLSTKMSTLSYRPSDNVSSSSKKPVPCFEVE
# [2] = target: T2, Angiotensin II receptor (AT-1) type-1 (Rattus norvegicus, UniProt P29089+P25095); experiment: In vivo percent inhibition of Angiotensin II receptor, type 1 induced increase in diastolic blood pressure in pithed rat at 3 mg/kg i.d.; type: functional, organism-based, Artery; design: dose 3 mg/kg, route intraduodenal
# T2 sequence (P29089 whole entry): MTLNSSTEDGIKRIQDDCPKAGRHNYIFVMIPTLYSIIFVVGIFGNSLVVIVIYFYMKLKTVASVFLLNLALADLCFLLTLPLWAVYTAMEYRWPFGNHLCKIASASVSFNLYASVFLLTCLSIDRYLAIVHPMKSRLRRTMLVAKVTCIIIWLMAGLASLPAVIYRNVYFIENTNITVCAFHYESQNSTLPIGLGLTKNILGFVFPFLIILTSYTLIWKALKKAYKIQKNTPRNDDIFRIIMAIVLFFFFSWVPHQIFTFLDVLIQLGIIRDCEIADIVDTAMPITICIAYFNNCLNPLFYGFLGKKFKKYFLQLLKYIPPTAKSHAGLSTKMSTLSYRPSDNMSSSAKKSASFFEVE
# T2 sequence (P25095 whole entry): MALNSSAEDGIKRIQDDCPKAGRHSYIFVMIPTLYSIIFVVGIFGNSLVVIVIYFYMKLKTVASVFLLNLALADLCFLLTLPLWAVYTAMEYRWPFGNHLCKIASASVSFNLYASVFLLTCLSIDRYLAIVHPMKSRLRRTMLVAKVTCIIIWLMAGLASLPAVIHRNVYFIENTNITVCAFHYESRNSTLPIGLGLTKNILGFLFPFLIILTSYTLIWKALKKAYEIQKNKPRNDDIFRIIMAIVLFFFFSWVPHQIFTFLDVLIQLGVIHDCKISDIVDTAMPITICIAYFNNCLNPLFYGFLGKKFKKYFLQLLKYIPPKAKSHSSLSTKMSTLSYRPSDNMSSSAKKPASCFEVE
# [3] = target: T2, Angiotensin II receptor (AT-1) type-1; experiment: Concentration required for 50% inhibition of binding against Angiotensin II receptor, type 1 in rat adrenal cortex; type: tissue-based
# [4] = target: T3, Type-1 angiotensin II receptor (Bos taurus, UniProt P25104); experiment: Concentration required for 50% inhibition of binding against Angiotensin II receptor, type 1 in bovine adrenal cortex; type: tissue-based
# T3 sequence (P25104 whole entry): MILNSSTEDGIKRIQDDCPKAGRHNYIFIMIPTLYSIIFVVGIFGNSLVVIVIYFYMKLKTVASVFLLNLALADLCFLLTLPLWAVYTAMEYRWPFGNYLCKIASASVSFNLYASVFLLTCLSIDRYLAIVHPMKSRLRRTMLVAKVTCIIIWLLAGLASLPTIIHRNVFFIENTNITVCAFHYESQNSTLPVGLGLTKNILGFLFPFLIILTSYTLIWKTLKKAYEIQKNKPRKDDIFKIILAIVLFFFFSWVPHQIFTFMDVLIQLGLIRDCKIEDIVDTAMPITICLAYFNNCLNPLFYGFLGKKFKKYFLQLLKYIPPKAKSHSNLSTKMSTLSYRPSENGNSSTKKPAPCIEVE
Compound,IC50 [1],IC50 [3],IC50 [4],Inhibition [2]
CCCc1nc2ccc(C3=NN(CC(=O)N(C)C)C(=O)CC3)cc2n1Cc1ccc(-c2ccccc2-c2nn[n-]n2)cc1.[K+],0.002 µM,0.0017 µM,,
CCc1nc2ccc(C3=NN(CC(=O)N(C)C)C(=O)CC3)cc2n1Cc1ccc(-c2ccccc2-c2nn[n-]n2)cc1.[K+],0.003 µM,0.0016 µM,,
CCCCc1nc2ccc(C3=NN(CC(=O)N(C)C)C(=O)CC3C)cc2n1Cc1ccc(-c2ccccc2-c2nn[n-]n2)cc1.[K+] (stereo unspecified),,0.0028 µM,,
CCCCc1nc2cc(C3=NNC(=O)CC3C)ccc2n1Cc1ccc(-c2ccccc2-c2nnn[nH]2)cc1 (stereo unspecified),,,0.161 µM,
CCCCc1nc2cc(C3=NN(Cc4ccc(-c5ccccc5-c5nn[nH]n5)cc4)C(=O)CC3C)ccc2[nH]1 (stereo unspecified),,,7 µM,
COc1ccc(-c2nc3cc(C4=NNC(=O)CC4C)ccc3n2Cc2ccc(-c3ccccc3-c3nn[nH]n3)cc2)cc1 (stereo unspecified),,,5.5 µM,
CCCCc1nc2ccc(C3=NNC(=O)CC3C)cc2[nH]1 (stereo unspecified),,,> 1000 µM,
COc1ccc(-c2nc3cc(C4=NN(Cc5ccc(-c6ccccc6-c6nn[nH]n6)cc5)C(=O)CC4C)ccc3[nH]2)cc1 (stereo unspecified),,,54 µM,
COc1ccc(-c2nc3ccc(C4=NNC(=O)CC4C)cc3[nH]2)cc1 (stereo unspecified) [PIMOBENDAN],,,17 µM,

# Second part, led by results:
IC50 [1],IC50 [3],IC50 [4],Compound,Inhibition [2]
0.004 µM,0.0034 µM,,CC1(C)CC(=O)NN=C1c1ccc2nc(C3CC3)n(Cc3ccc(-c4ccccc4-c4nn[n-]n4)cc3)c2c1.[K+],80%
,0.0036 µM,,Cc1cc(=O)n(CC(=O)N(C)C)nc1-c1ccc2nc(C3CC3)n(Cc3ccc(-c4ccccc4-c4nn[n-]n4)cc3)c2c1.[K+],
0.002 µM,0.0047 µM,,CN(C)C(=O)CN1N=C(c2ccc3nc(C4CC4)n(Cc4ccc(-c5ccccc5-c5nn[n-]n5)cc4)c3c2)C(C)(C)CC1=O.[K+],
0.002 µM,0.0029 µM,,CC1CC(=O)N(CC(=O)N(C)C)N=C1c1ccc2nc(C3CC3)n(Cc3ccc(-c4ccccc4-c4nn[n-]n4)cc3)c2c1.[K+] (stereo unspecified),56%
0.002 µM,0.0036 µM,,CN(C)C(=O)CN1N=C(c2ccc3nc(C4CC4)n(Cc4ccc(-c5ccccc5-c5nn[n-]n5)cc4)c3c2)CCC1=O.[K+],
0.002 µM,0.0018 µM,,CC1CC(=O)NN=C1c1ccc2nc(C3CC3)n(Cc3ccc(-c4ccccc4-c4nn[nH]n4)cc3)c2c1 (stereo unspecified),80%
0.003 µM,0.0018 µM,,Cc1cc(O)nnc1-c1ccc2nc(C3CC3)n(Cc3ccc(-c4ccccc4-c4nn[nH]n4)cc3)c2c1,40%
,0.0063 µM,0.022 µM,CCCCc1nc2ccc(C3=NNC(=O)CC3C)cc2n1Cc1ccc(-c2ccccc2-c2nn[nH]n2)cc1 (stereo unspecified),
,0.0044 µM,,CCCCc1nc2ccc(-c3nnc(O)cc3C)cc2n1Cc1ccc(-c2ccccc2-c2nn[nH]n2)cc1,
,0.005 µM,,CCCCc1nc2ccc(C3=NNC(=O)CC3)cc2n1Cc1ccc(-c2ccccc2-c2nn[nH]n2)cc1,
,0.0065 µM,,COC(=O)c1ccccc1CN1N=C(c2ccc3nc(C4CC4)n(Cc4ccc(-c5ccccc5-c5nn[nH]n5)cc4)c3c2)C(C)CC1=O (stereo unspecified),
0.004 µM,0.0032 µM,,COC(=O)CN1N=C(c2ccc3nc(C4CC4)n(Cc4ccc(-c5ccccc5-c5nn[nH]n5)cc4)c3c2)C(C)CC1=O (stereo unspecified),57%
